What all share (assay type): cell-based, human
Assay [1] concerns CD3+ cells of MS patients. The assay can be described thus: Transwell migration assay with PBMC of MS patients, CD3+ cells. The conditions noted are these: PBMC of treatment-naive MS patients; p = 0.0008; repeated measures one-way ANOVA, Dunnett. On the procedure: (§1) 5 Activity of the novel VhTI-pep 2 and pepitem on patient lymphocytes. PPBMCs were isolated from the blood of MS patients with a very recent disease flare receiving no immunosuppressive or immunomodulatory treatment in the past. The effect of the linear pepitem and VhTI-pep 2 was tested for the T-cell populations (A) CD3^+, (B) Th1, (C) CD4^+, (D) memory CD4^+, (E) CD8^+, and (F) memory CD8^+ cells. Data are shown as mean ± SD for 4 independent measurements. Statistical analysis was performed on the level of total counted cells using repeated measures one-way ANOVA with Dunnett’s post hoc test. Statistical significance is indicated as n.s. (not significant), * p < 0.05; ** p < 0.01; *** p < 0.001.
(§2) Human microvascular endothelial cells (HMEC-1 cells, Cytion, Eppelheim, Germany) were cultured in MCDB-131 medium (with 2.2 g/L sodium bicarbonate, without L-glutamine, PAN-Biotech Aidenbach, Germany) supplemented with 10% fetal bovine serum (FBS, Capricorn Scientific, Ebsdorfergrund, Germany), 100 units/ml penicillin-streptomycin (Sigma-Aldrich) 10 ng/mL epidermal growth factor (BioLegend, San Diego, US), 1 μg/mL hydrocortisone (Sigma-Aldrich), and 10 mM L-glutamine (Sigma-Aldrich). For experiments, the cells were used between passage numbers 4–9. […]

Assay [2] has as its system CD4+ cells of MS patients. The assay can be described thus: Transwell migration assay with PBMC of MS patients, CD4+ cells. Conditions: PBMC of treatment-naive MS patients; p = 0.0005. On the procedure:
as §1, §2

Assay [3] relates to CD8+ cells of MS patients. The assay can be described thus: Transwell migration assay with PBMC of MS patients, CD8+ cells. Conditions: PBMC of treatment-naive MS patients; too few cells to test significance. On the procedure:
as §1, §2

Positions of bridges follow the written chain, without caps; N, C: chain ends. Non-standard residues stand in square brackets, D forms with d. Residues, ends and D or L forms follow the SMILES beside them. Nle = CCCC[C@H](N)C(=O)O

Consider `CCCC[C@@H]1NC(=O)[C@H](C(C)C)NC(=O)[C@H](CCCCN)NC(=O)[C@@H](NC(=O)[C@H](CCC(N)=O)NC(=O)[C@H](CCC(=O)O)NC(C)=O)CSSC[C@@H](C(=O)N[C@@H](CCC(=O)O)C(=O)N[C@@H](CCCCN)C(N)=O)NC(=O)[C@H](CC(N)=O)NC(=O)[C@H](CC(=O)O)NC(=O)[C@H](CC(C)C)NC(=O)[C@@H]2CSSC[C@H](NC1=O)C(=O)N[C@@H](Cc1ccc(O)cc1)C(=O)N[C@@H](C)C(=O)N[C@@H](CCC(N)=O)C(=O)NCC(=O)N[C@@H](C)C(=O)N[C@@H](CCC(=O)O)C(=O)N[C@@H](CC(C)C)C(=O)N1CCC[C@H]1C(=O)N[C@@H](CCC(=O)O)C(=O)N[C@@H](CC(C)C)C(=O)N[C@@H](CC(C)C)C(=O)N[C@@H](CCCNC(=N)N)C(=O)N[C@@H](CCCNC(=N)N)C(=O)N2` [VhTI-pep 2] (Ac-EQCKV[Nle]CYAQGAELPELLRRCLDNCEK-NH2; disulfide 3-25, 7-21), for which the “migration of CD3+ cells of MS patients (in words)” value in assay [1] is listed as “significantly reduced”. The “migration of CD4+ cells of MS patients (in words)” value in assay [2] is recorded as “significantly reduced”. The “migration of CD8+ cells of MS patients (in words)” value in assay [3] is “positive trend”.

These data come from PMC12406255, “Engineering Peptide Modulators for T‑Cell Migration by Structural Scaffold Matching” (Journal of Medicinal Chemistry, 2025).
